Source: the supplement of paper PMC6045584
± gives the standard deviation of the averaged measurements.

How the values were obtained:
CRIZOTINIB = compound: C[C@@H](Oc1cc(-c2cnn(C3CCNCC3)c2)cnc1N)c1c(Cl)ccc(F)c1Cl [CRIZOTINIB]; assay: surviving fraction relative to DMSO-only wells; higher = less growth inhibition; settings: exposure time: 5 days
How it was run: (§1)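 Log-phase tumour cells were seeded at 250–500 per well in 384-well plates and, from 24 hours after seeding, exposed continuously for five days to inhibitors at 0.5, 1, 5, 10, 50, 100, 500 and 1000 nM. Surviving fraction is CellTiter-Glo luminescence normalised to the median of DMSO-only wells. Luminescence was measured after 10 minutes at room temperature, and only lines screened three times with replicate Pearson r >0.7 and median Z' >0.3 were kept.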

[1] = compound: CNCc1ccc(-c2[nH]c3cc(F)cc4c3c2CCNC4=O)cc1; assay: as above; settings: exposure time: 5 days
How it was run: as §1

Test System | surviving fraction (CRIZOTINIB; 0.5 nM) | surviving fraction (CRIZOTINIB; 1 nM) | surviving fraction (CRIZOTINIB; 5 nM) | surviving fraction (CRIZOTINIB; 50 nM) | surviving fraction (CRIZOTINIB; 100 nM) | surviving fraction (CRIZOTINIB; 500 nM) | surviving fraction (CRIZOTINIB; 1000 nM) | surviving fraction ([1]; 0.5 nM) | surviving fraction ([1]; 1 nM) | surviving fraction ([1]; 5 nM) | surviving fraction ([1]; 10 nM) | surviving fraction ([1]; 50 nM) | surviving fraction ([1]; 100 nM) | surviving fraction ([1]; 500 nM) | surviving fraction ([1]; 1000 nM) | surviving fraction (CRIZOTINIB; 10 nM)
HCT15 LARGE INTESTINE | 1.05 ± 0.083 | 1.1 ± 0.1 | 1.14 ± 0.044 | 1.18 ± 0.042 | 1.17 ± 0.04 | 1.09 ± 0.049 | 0.265 ± 0.022 | 1.03 ± 0.075 | 1.01 ± 0.16 | 1.05 ± 0.13 | 1.05 ± 0.051 | 0.982 ± 0.1 | 0.988 ± 0.093 | 0.996 ± 0.095 | 1.03 ± 0.13 | –
HELA CERVIX | 1.09 ± 0.057 | 1.07 ± 0.062 | 1.08 ± 0.055 | 1.09 ± 0.12 | 1.07 ± 0.08 | 1.09 ± 0.072 | 0.581 ± 0.028 | 1.09 ± 0.093 | 1.09 ± 0.08 | 1.08 ± 0.054 | 1.03 ± 0.07 | 1.16 ± 0.11 | 1.12 ± 0.16 | 1.14 ± 0.079 | 1.09 ± 0.071 | 1.09 ± 0.03
HOS BONE | 1.03 ± 0.026 | – | 1.05 ± 0.017 | 1.04 ± 0.025 | 1.09 ± 0.022 | 0.685 ± 0.041 | 0.575 ± 0.014 | 1.02 ± 0.017 | 1.05 ± 0.034 | 1.01 ± 0.015 | 1.029 ± 0.01 | 1.01 ± 0.023 | 0.994 ± 0.022 | 1.02 ± 0.019 | 0.9833 ± 0.0055 | –
HOSMNG BONE | 0.954 ± 0.09 | 0.983 ± 0.1 | – | 0.649 ± 0.012 | 0.501 ± 0.017 | 0.329 ± 0.032 | 0.227 ± 0.011 | 0.936 ± 0.055 | 0.988 ± 0.083 | 0.94 ± 0.14 | 0.857 ± 0.03 | 0.838 ± 0.032 | 0.885 ± 0.089 | 0.929 ± 0.11 | 0.954 ± 0.045 | –
HSSYII SYNOVIAL | 1.04 ± 0.045 | 1.03 ± 0.037 | 1.03 ± 0.05 | 0.934 ± 0.034 | – | 0.392 ± 0.037 | 0.189 ± 0.0013 | 0.918 ± 0.023 | 0.915 ± 0.074 | 0.881 ± 0.028 | 0.861 ± 0.027 | 0.696 ± 0.055 | 0.653 ± 0.041 | 0.473 ± 0.05 | 0.343 ± 0.021 | 1 ± 0.083
HT1080 SOFT TISSUE | 1.07 ± 0.038 | 1.07 ± 0.028 | 1.07 ± 0.016 | 1.04 ± 0.062 | 1.07 ± 0.052 | 1.02 ± 0.042 | 0.798 ± 0.064 | 1.04 ± 0.019 | 1.01 ± 0.014 | 0.983 ± 0.04 | 0.968 ± 0.018 | 0.899 ± 0.018 | 0.869 ± 0.037 | 0.818 ± 0.047 | 0.671 ± 0.068 | 1.06 ± 0.017
HU09 BONE | 0.86 ± 0.084 | 0.956 ± 0.13 | 1.13 ± 0.099 | 1.02 ± 0.044 | 1.02 ± 0.042 | 0.511 ± 0.063 | 0.233 ± 0.048 | 1.04 ± 0.068 | 0.977 ± 0.052 | 1.04 ± 0.072 | 0.991 ± 0.066 | 0.965 ± 0.24 | 0.889 ± 0.13 | 0.757 ± 0.051 | 0.669 ± 0.074 | 1.14 ± 0.06
HUO3N1 BONE | 1.03 ± 0.016 | 1.02 ± 0.049 | 1.117 ± 0.0087 | – | – | – | 0.787 ± 0.061 | 1.04 ± 0.061 | 1.02 ± 0.062 | 1.04 ± 0.038 | 0.987 ± 0.099 | 0.933 ± 0.06 | 0.988 ± 0.04 | 0.884 ± 0.039 | 0.85 ± 0.032 | 1.07 ± 0.083
JIMT1 BREAST | 1.01 ± 0.029 | 1.01 ± 0.029 | 1.03 ± 0.012 | 1.07 ± 0.045 | 1.08 ± 0.036 | 0.833 ± 0.044 | 0.538 ± 0.022 | 0.948 ± 0.055 | 0.945 ± 0.052 | 0.98 ± 0.067 | 0.9615 ± 0.0036 | 0.881 ± 0.045 | 0.885 ± 0.05 | 0.864 ± 0.031 | 0.856 ± 0.054 | 1 ± 0.032
JURKAT HAEMATOPOIETIC AND LYMPHOID TISSUE | 1.04 ± 0.011 | – | – | – | 0.928 ± 0.028 | 0.212 ± 0.0087 | 0.306 ± 0.011 | 1.09 ± 0.018 | 1.1 ± 0.029 | 1.04 ± 0.019 | 1.02 ± 0.024 | 1.01 ± 0.049 | 1.01 ± 0.029 | 0.979 ± 0.021 | 0.916 ± 0.047 | 0.96 ± 0.035
KPD BONE | 0.936 ± 0.05 | 1.01 ± 0.038 | – | – | – | – | 0.245 ± 0.011 | 0.975 ± 0.058 | 0.983 ± 0.022 | 1.13 ± 0.15 | 1.05 ± 0.028 | 0.956 ± 0.032 | 0.95 ± 0.022 | 0.876 ± 0.022 | 0.732 ± 0.046 | 1.16 ± 0.03
LM7 BONE | – | 1.01 ± 0.043 | 1.07 ± 0.067 | 1.04 ± 0.051 | 1.12 ± 0.07 | 0.591 ± 0.046 | 0.221 ± 0.0062 | 0.912 ± 0.043 | 0.965 ± 0.015 | 0.986 ± 0.06 | 1.01 ± 0.016 | 0.752 ± 0.042 | 0.679 ± 0.1 | 0.497 ± 0.013 | 0.451 ± 0.0082 | –
LNCAP PROSTATE | 1.01 ± 0.15 | – | – | 0.872 ± 0.061 | 0.904 ± 0.12 | 0.653 ± 0.063 | 0.425 ± 0.065 | 1.09 ± 0.059 | 1.14 ± 0.038 | 1.01 ± 0.095 | 0.907 ± 0.093 | 1.02 ± 0.047 | 0.946 ± 0.013 | 0.969 ± 0.056 | 0.73 ± 0.057 | 0.924 ± 0.094
MCF7 BREAST | 0.963 ± 0.04 | – | 0.967 ± 0.011 | 1 ± 0.025 | 0.981 ± 0.021 | 1 ± 0.05 | 0.617 ± 0.035 | 0.923 ± 0.057 | 0.927 ± 0.072 | 0.921 ± 0.086 | 0.918 ± 0.084 | 0.951 ± 0.058 | 0.93 ± 0.081 | 0.865 ± 0.0098 | 0.924 ± 0.043 | 0.968 ± 0.042
MDAMB134 BREAST | – | 1.01 ± 0.028 | 0.93 ± 0.068 | 0.91 ± 0.0085 | – | 1.05 ± 0.019 | 0.947 ± 0.026 | 0.811 ± 0.061 | 0.818 ± 0.12 | 0.814 ± 0.051 | 0.8795 ± 0.0078 | 0.703 ± 0.19 | 0.764 ± 0.13 | 0.824 ± 0.21 | 0.986 ± 0.4 | 1.06 ± 0.04
MDAMB157 BREAST | 1.03 ± 0.087 | 0.999 ± 0.027 | 1.06 ± 0.076 | 1.06 ± 0.11 | 1.04 ± 0.082 | 0.754 ± 0.021 | 0.601 ± 0.029 | 0.959 ± 0.026 | 0.91 ± 0.025 | 1.04 ± 0.053 | 1.03 ± 0.09 | 0.921 ± 0.088 | 1 ± 0.12 | 0.73 ± 0.03 | 0.691 ± 0.015 | 0.977 ± 0.044
MDAMB231 BREAST | 0.997 ± 0.019 | 1.01 ± 0.024 | 0.999 ± 0.034 | 0.947 ± 0.031 | 0.9384 ± 0.0074 | 0.541 ± 0.011 | 0.352 ± 0.022 | 0.937 ± 0.013 | 0.967 ± 0.027 | 0.971 ± 0.06 | 0.959 ± 0.021 | 0.917 ± 0.015 | 0.891 ± 0.037 | 0.824 ± 0.02 | 0.764 ± 0.0086 | 1 ± 0.023
MDAMB361 BREAST | 0.815 ± 0.053 | 0.898 ± 0.094 | 0.881 ± 0.035 | 0.828 ± 0.07 | – | 0.882 ± 0.067 | 1.03 ± 0.095 | 0.709 ± 0.074 | 0.752 ± 0.04 | 0.672 ± 0.041 | 0.69 ± 0.0053 | 0.543 ± 0.065 | 0.615 ± 0.082 | 0.553 ± 0.09 | 0.589 ± 0.063 | 0.848 ± 0.079
MDAMB436 BREAST | 1.01 ± 0.032 | 0.97 ± 0.11 | 1.02 ± 0.086 | 0.965 ± 0.11 | 1.07 ± 0.022 | – | 0.916 ± 0.1 | 0.882 ± 0.12 | 0.925 ± 0.083 | 0.874 ± 0.092 | 0.82 ± 0.1 | 0.62 ± 0.11 | 0.587 ± 0.053 | 0.542 ± 0.097 | 0.531 ± 0.064 | 1.03 ± 0.13
MDAMB453 BREAST | 1.1 ± 0.049 | 1.06 ± 0.064 | 1.17 ± 0.079 | – | 1.11 ± 0.039 | 0.844 ± 0.042 | 0.803 ± 0.043 | 0.991 ± 0.071 | 1.01 ± 0.096 | 1.05 ± 0.049 | 0.979 ± 0.093 | 0.919 ± 0.062 | 0.957 ± 0.06 | 0.892 ± 0.022 | 0.696 ± 0.017 | 1.14 ± 0.12
MDAMB468 BREAST | 1.08 ± 0.018 | 1.12 ± 0.072 | 1.11 ± 0.023 | 1.16 ± 0.029 | 1.06 ± 0.015 | 0.666 ± 0.039 | 0.276 ± 0.007 | 0.941 ± 0.048 | 0.89 ± 0.085 | 0.917 ± 0.034 | 0.929 ± 0.056 | 0.8 ± 0.047 | 0.746 ± 0.065 | 0.761 ± 0.048 | 0.609 ± 0.12 | 1.1 ± 0.094
MFM223 BREAST | 1.21 ± 0.058 | 1.2 ± 0.019 | 1.21 ± 0.058 | 1.07 ± 0.058 | – | 1.07 ± 0.011 | 1.084 ± 0.0027 | 1.04 ± 0.11 | 1.17 ± 0.072 | 1.07 ± 0.069 | 1.13 ± 0.12 | 0.775 ± 0.053 | 0.699 ± 0.011 | 0.755 ± 0.031 | 0.705 ± 0.079 | 1.11 ± 0.033
